Measured values from US20130143230A1, “MICROFLUIDIC-BASED CELL-CULTURING PLATFORM AND METHOD” (The Trustees of the Stevens Institute of Technology, priority 2011, published 2013).

Columns and labels:
Format in all cases: cell-based, Human
[1] = system: MCF-7; test: Photodynamic therapy in 3D cultured breast cancer tissue, live/dead staining; settings: 3D tissue, perfusion 4 hours, broadband halogen light 1 minute, stained after overnight culture
Protocol: A photosensitizer precursor drug, aminolevulinic acid (5-ALA) was supplemented in the culture media delivered to a 3D cultured breast cancer tissue (MCF-7), and allowed to infiltrate the tissue via perfusion for 4 hours to emulate microinjection. After cellular uptake, 5-ALA was converted into photosensitive protoporphyrin (PpIX). […] High ROS concentrations led to cell destruction. To determine the extent of cell damage, the culture was stained with a live/dead staining kit (Sigma) after overnight culture and examined with a Leica confocal microscope.

[2] = system: MCF-7; test: Photodynamic therapy in 2D culture, live/dead staining
Text: […] After cellular uptake, 5-ALA was converted into photosensitive protoporphyrin (PpIX). […] High ROS concentrations led to cell destruction. To determine the extent of cell damage, the culture was stained with a live/dead staining kit (Sigma) after overnight culture and examined with a Leica confocal microscope.

[3] = system: MCF-7; test: Drug evaluation in microfluidic 3D breast cancer tissue culture (tissue nodules); settings: flow 0.8 μL/min, one week, 3D microfluidic culture
Protocol: Human breast cancer cells (from immortalized cell line MCF-7) were incubated in a tissue culture chamber for 2 weeks with a continuous media flow at 0.8 μL/min. Initial cell attachment was seen across the entire chamber surface and continuously proliferated over time to form a 3D tissue layer having a depth of about 70-100 μm. […] These structures were similar to those observed in the earliest stages of tumor formation. A majority of the cells remained viable.
In contrast to pure cultures of breast cancer cells, co-cultures with stromal cells stimulate breast cancer cells. […] At three weeks of incubation, the nodule-like structures had become large enough to be recognized under a microscope, reaching 80-150 μm in diameter. Based on histological staining, the organization of these cells was consistent with their cancerous origin. The cells appeared to be transformed, having an increased nuclear/cytoplasmic ratio, and the cell mass was disorganized.
Doxorubicin (Dox), a known anticancer drug, was first tested using the microfluidic breast tissue culture described in the preceding examples. Dox was delivered to the tissue nodules at 10 nM and 1 μM, respectively, at a flow rate of 0.8 μL/min of medium via the inlet for one week.
A new lytic anticancer peptide (L5) was designed and synthesized to interact with cell membranes and therefore disrupt membrane integrity and destroy cells. The peptide drug was delivered to the tissue nodules at 30 μg/mL in the medium at a flow rate of 0.8 μL/min of medium via inlet for 2 days. […] Occasionally, some nuclei were still seen in the remaining tissue matrix. […] This may be due to a reduced rate of diffusion of the drug to the area of the surviving cells. This finding highlights the value of using the microfluidic culture model for drug assessment as it provides a more accurate representation of the 3D cellular organization encountered in vivo. It also hints at a plausible explanation to why some breast cancer therapies fail in vivo or why recurrence and multidrug resistance occurs after chemotherapy. […]

Row | Compound | cells killed after PDT treatment [1] | cells killed after PDT treatment [2] | progression of tumor nodules (real-time images) ([3]; 10 nM in medium) | formation of dark nodules (real-time images) ([3]; 1 μM in medium) | tissue growth ([3]; 1 μM in medium)
1 | NCC(=O)CCC(=O)O [5-ALA, aminolevulinic acid] | about 50% | about 70% | – | – | –
2 | COc1cccc2c1C(=O)c1c(O)c3c(c(O)c1C2=O)C[C@@](O)(C(=O)CO)C[C@@H]3O[C@H]1C[C@H](N)[C@H](O)[C@H](C)O1 [Dox, Doxorubicin] | – | – | continuous progression of tumor nodules was observed | No obvious formation of dark nodules was observed | continuous tissue growth was noticed
